In the supplement of paper PMC13380429:

Experiments:
Settings in all cases: 72 h
[1] = tested on: U2OS; assay: cell viability relative to DMSO; higher = less toxic
[2] = tested on: HepG2; assay: as above
[3] = tested on: Calu-3; assay: as above
[4] = tested on: Vero E6; assay: as above
[5] = tested on: Caco-2; assay: as above
[6] = tested on: U2OS; assay: relative viability EC50 (midpoint between 100% and the lowest measured viability); higher = less toxic
[7] = tested on: HepG2; assay: as above
[8] = tested on: Calu-3; assay: as above
[9] = tested on: Vero E6; assay: as above
[10] = tested on: Caco-2; assay: as above
[11] = tested on: U2OS; assay: drug sensitivity score (DSS) for viability; higher = more toxic; extreme values may be limits of the assay
[12] = tested on: HepG2; assay: as above
[13] = tested on: Calu-3; assay: as above
[14] = tested on: Vero E6; assay: as above
[15] = tested on: Caco-2; assay: as above

Structure (SMILES)	cell viability ([1]; 1 nM) [%]	cell viability ([1]; 10 nM) [%]	cell viability ([1]; 100 nM) [%]	cell viability ([1]; 1000 nM) [%]	cell viability ([1]; 10000 nM) [%]	cell viability ([2]; 1 nM) [%]	cell viability ([2]; 10 nM) [%]	cell viability ([2]; 100 nM) [%]	cell viability ([2]; 1000 nM) [%]	cell viability ([2]; 10000 nM) [%]	cell viability ([3]; 1 nM) [%]	cell viability ([3]; 10 nM) [%]	cell viability ([3]; 100 nM) [%]	cell viability ([3]; 1000 nM) [%]	cell viability ([3]; 10000 nM) [%]	cell viability ([4]; 1 nM) [%]	cell viability ([4]; 10 nM) [%]	cell viability ([4]; 100 nM) [%]	cell viability ([4]; 1000 nM) [%]	cell viability ([4]; 10000 nM) [%]	cell viability ([5]; 1 nM) [%]	cell viability ([5]; 10 nM) [%]	cell viability ([5]; 100 nM) [%]	cell viability ([5]; 1000 nM) [%]	cell viability ([5]; 10000 nM) [%]	relative viability EC50 [6] [µM]	relative viability EC50 [7] [µM]	relative viability EC50 [8] [µM]	relative viability EC50 [9] [µM]	relative viability EC50 [10] [µM]	drug sensitivity score [11]	drug sensitivity score [12]	drug sensitivity score [13]	drug sensitivity score [14]	drug sensitivity score [15]
CCCCCCCCN=c1ccn(CCCCCCCCCCn2ccc(=NCCCCCCCC)cc2)cc1 [octenidine]	95.5	104	95.4	89.9	2.7	89.6	93.4	102	65.6	2.6	106	101	98.6	98.6	0.7	96.8	94.7	92.5	83.7	0.1	98.7	97.5	101	78	1	2.31	1.27	3.07	1.91	1.65	7	10.2	5.7	8.2	8.9
COC(=O)N1CCN(Cc2cccc(NC(=O)Nc3ccc(C)nc3)c2F)CC1 [omecamtiv-mecarbil]	97	101	93.3	99	97.4	105	96.1	100	98.5	97.1	92.4	94.4	107	97.4	99.9	105	100	104	101	99.1	93	89.7	95.3	96.3	87	> 10	> 10	> 10	> 10	> 10	0	0	0	0	0
COc1ccc2[nH]c([S+]([O-])Cc3ncc(C)c(OC)c3C)nc2c1 (stereo not given) [omeprazole-magnesium]	96.6	97.3	102	94.3	96	87.7	98.4	86.3	99.7	95.1	93.3	104	98.7	95.5	98.9	102	105	96.2	96.3	110	90.7	72.4	100	97.4	107	> 10	> 10	> 10	> 10	> 10	0	0	0	0	0
COc1ccc2[nH]c([S+]([O-])Cc3ncc(C)c(OC)c3C)nc2c1 (stereo not given) [omeprazole]	106	98.4	101	104	98.6	102	96.6	99.4	99.5	97	115	94.3	103	104	113	98.5	106	102	107	103	104	92.2	103	99	95	> 10	> 10	> 10	> 10	> 10	0	0	0	0	0
Cc1[nH]c(/C=C2\C(=O)Nc3ccccc32)c(C)c1CCC(=O)O [orantinib]	98.1	94.3	101	99.1	98.4	98.3	103	106	98.7	100	98.8	104	107	106	99.2	107	103	103	96.2	98.1	101	96.9	102	104	97.5	> 10	> 10	> 10	> 10	> 10	0	0	0	0	0
